Molecules are shown by their SMILES. ≈ marks a conversion by molar mass, not a printed value. Calls of active or inactive are those of the source. The calls are words filed in the database; no cut-off is given here.

Here are results for nine compounds from ChEMBL document CHEMBL5252626, “Design and synthesis of novel GluN2A NMDAR positive allosteric modulators via scaffold hopping strategy as anti-stroke therapeutic agents” (Bioorg Med Chem, 2023).

Data set [1] deals with PC-12. Description: Cytotoxicity in rat PC-12 cells assessed as reduction in cell viability at 10 uM incubated for 24 hrs by CCK-8 method. It is filed as toxicity, cell-based. The following applies: pc-12, 24 h.
The subject of data set [2] is PC-12. Description: Neuroprotective activity against glutamate-induced neurotoxicity in rat PC-12 cells assessed as survival rate at 10 uM by WST-8 assay. It is filed as functional.
The test system of data set [3] is PC-12. Description: Neuroprotective activity against glutamate-induced neurotoxicity in rat PC-12 cells assessed as survival rate at 1 uM by WST-8 assay. It is filed as functional.
In data set [4] the test system is PC-12. In words: Neuroprotective activity against glutamate-induced neurotoxicity in rat PC-12 cells assessed as survival rate at 0.1 uM by WST-8 assay (reference value: 40.8+/-2.0%). In kind it is functional.
A short description of data set [5]: Solubility of the compound in water by UV spectophotometry analysis. In kind it is physicochemical.
Data set [6] relates to Mus musculus. Description: Neuroprotective activity in middle cerebral artery occlusion-induced C57BL/6 mouse model assessed as reduction in infarct volume at 2 mg/kg, sc incubated with compound for 2 hrs after reperfusion by TTC staining based assay relative to control. It is filed as functional. Set-up: scale not given: the % may be the effect or the level left.
Data set [7] addresses Glutamate NMDA receptor; GRIN1/GRIN2B (Homo sapiens) (UniProt Q05586+Q13224). In words: Positive allosteric modulation of GluN1/GluN2B receptor (unknown origin) stably expressed in HEK293 cells assessed as glutamate/glycine induced increase in intracellular calcium level at 10 uM incubated for 30 mins followed by addition of glutamate/glycine by Ca2+ influx assay. It is filed as cell-based.

The target of data set [8] is T1, Glutamate NMDA receptor; GRIN1/GRIN2A (Homo sapiens) (UniProt Q05586+Q12879). Description: Positive allosteric modulation of GluN1/GluN2A receptor (unknown origin) stably expressed in HEK293 cells assessed as glutamate/glycine induced increase in intracellular calcium level at 10 uM incubated for 30 mins followed by addition of glutamate/glycine by Ca2+ influx assay. It is filed as cell-based. To be noted: filed as positive allosteric modulator.

In data set [9] the test system is Mus musculus. Description: Neuroprotective activity in middle cerebral artery occlusion-induced C57BL/6 mouse model assessed as reduction in infarct volume at 2 mg/kg, sc incubated with compound for 2 hrs after reperfusion by TTC staining based assay. It is filed as functional.
Data set [10] concerns the target T1, Glutamate NMDA receptor; GRIN1/GRIN2A (Homo sapiens). Description: Positive allosteric modulation of GluN1/GluN2A receptor (unknown origin) stably expressed in HEK293 cells assessed as ratio of Fmax/F0 fluorescence curve value. It is filed as cell-based. To be noted: filed as positive allosteric modulator.
[11] abbreviates: filed as positive allosteric modulator.

Consider `CNC(=O)c1ccccc1NC(=O)c1c[nH]c2ccccc2c1=O`, for which the Activity came to 90.6% in the data set with PC-12 [1], 53.7% in the data set on PC-12 [2], 55.9% in the data set with PC-12 [3] and 56.4% in the data set on PC-12 [4]. In [5], this compound had a solubility of 62.3 µM (≈ 20 µg/mL).
With `COc1ccccc1NC(=O)c1c[nH]c2c(Cl)cccc2c1=O`, the Activity was determined as 84.4% in the data set on PC-12 [1]; 52.8% in the data set on PC-12 [2]; 49% in the data set with Mus musculus [6]; 64.9% in the data set with PC-12 [3]; 64.3% with PC-12 [4]. Besides, the result in data set [7] (setting [11]) and in [8] was Active. This compound also showed a solubility in data set [5] of 13.7 µM (≈ 4.5 µg/mL).
Turning to `CC(=O)Nc1ccc(NC(=O)c2c[nH]c3ccccc3c2=O)cc1`, the Activity worked out at 101.5% in the data set on PC-12 [1], 65.4% in the data set on PC-12 [2], 66.6% with PC-12 [3] and 57.2% in the data set on PC-12 [4]. The compound further gave a solubility in data set [5] of less than 6.2 µM.
As to `CC(=O)Nc1ccc(NC(=O)C2=Cc3ccccc3OC2)cc1`, the Activity is on record as 84.7% in the data set with PC-12 [1]; 93 mm in the data set with Mus musculus [9]; 57.3% in the data set with PC-12 [2]; 54.1% in the data set with PC-12 [3]; 62.1% in the data set with PC-12 [4]. The compound also displayed a solubility in [5] of 364 µM (≈ 112 µg/mL).
With `CCOc1cc(Cl)c(Cl)c(/C=N/NC(=O)c2ccccc2Br)c1O`, the Activity was 40.2% with PC-12 [1]; 149 mm in the data set on Mus musculus [9]; 8.6% in the data set with PC-12 [2]; 31.33% in the data set on Mus musculus [6]; 53.1% in the data set on PC-12 [3]; 44.3% in the data set on PC-12 [4]. Also, in [10], the Ratio was 152. The outcome in data set [7] (setting [11]) and in [8] was Active.
For `COc1cccc(NC(=O)c2c[nH]c3ccccc3c2=O)c1`, the Activity amounted to 100.8% in the data set with PC-12 [1], 44.5% with PC-12 [2], 59.5% in the data set with PC-12 [3] and 65.5% with PC-12 [4]. The same compound came in with a solubility in data set [5] of 454 µM (≈ 133 µg/mL).
With `Cc1ccc(O)cc1NC(=O)c1c[nH]c2c(Cl)cccc2c1=O`, the Activity was 92.7% in the data set on PC-12 [1], 41.6% with PC-12 [2], 44.7% in the data set with PC-12 [3] and 53.6% with PC-12 [4]. The solubility in data set [5] was 140 µM (≈ 46 µg/mL).
For `CC(=O)Nc1ccc(NC(=O)c2c[nH]c3c(Cl)cccc3c2=O)cc1`, the Activity in the data set with PC-12 [1] is 91.9%; in the data set on Mus musculus [9], 96 mm; in the data set on PC-12 [2], 62.7%; in the data set on PC-12 [3], 62%; in the data set on PC-12 [4], 61.5%. Further, the outcome in [7] (setting [11]) and in [8] was Active. In addition, in [5], the solubility was determined as 34.7 µM (≈ 12.3 µg/mL).
On to `Cc1ccc(O)cc1NC(=O)c1c[nH]c2ccccc2c1=O`, for which the Activity is reported as 63.6% in the data set with PC-12 [1]; 50.2% in the data set on PC-12 [2]; 45% in the data set on Mus musculus [6]; 52% in the data set on PC-12 [3]; 59.5% in the data set with PC-12 [4]. Moreover, the Ratio in [10] was determined as 154. Further, the outcome in [7] was inactive. Further, the result in data set [8] was Active. The solubility in data set [5] was 29.6 µM (≈ 8.71 µg/mL).
